Publication PMC3204975, “A Photolyase-Like Protein from Agrobacterium tumefaciens with an Iron-Sulfur Cluster” (PLoS ONE, 2011)

Tests used:
PhrA = molecular target: T1, PhrA (Agrobacterium fabrum, UniProt A9CJC9); assay: UV-vis absorption and blue-light photoreduction of co-purified cofactor; format: binding; settings: co-purified from E. coli; 24 h dark, then 470 nm light with 10 mM DTT, pH 7.8, 4°C
T1 construct: full gene, N-terminal His6-tag (pQE30UA), expressed in E. coli XL1 blue, tag not reported cut
T1 sequence (A9CJC9 1-479): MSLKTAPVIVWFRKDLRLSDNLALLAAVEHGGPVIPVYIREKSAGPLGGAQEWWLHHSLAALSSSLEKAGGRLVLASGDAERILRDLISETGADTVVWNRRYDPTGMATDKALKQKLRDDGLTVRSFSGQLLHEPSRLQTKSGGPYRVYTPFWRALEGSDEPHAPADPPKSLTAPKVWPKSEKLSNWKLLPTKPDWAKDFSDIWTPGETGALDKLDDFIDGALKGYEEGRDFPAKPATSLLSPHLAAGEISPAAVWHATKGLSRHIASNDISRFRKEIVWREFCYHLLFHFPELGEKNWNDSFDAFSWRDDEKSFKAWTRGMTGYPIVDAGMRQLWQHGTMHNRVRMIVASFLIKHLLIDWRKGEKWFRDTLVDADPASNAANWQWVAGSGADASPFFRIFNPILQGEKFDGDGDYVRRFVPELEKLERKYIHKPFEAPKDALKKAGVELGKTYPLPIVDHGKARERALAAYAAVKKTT

PhrB = molecular target: T2, PhrB (Agrobacterium fabrum, UniProt A9CH39); assay: as above; format: binding; settings: co-purified from E. coli; 24 h dark, then 470 nm and 405 nm light with 20 mM DTT, pH 7.8, 4°C
T2 construct: full gene (1524 bp, 507 residues), C-terminal 6xHis-tag (pET-21b), expressed in E. coli ER2566, tag not reported cut
T2 sequence (A9CH39 whole entry): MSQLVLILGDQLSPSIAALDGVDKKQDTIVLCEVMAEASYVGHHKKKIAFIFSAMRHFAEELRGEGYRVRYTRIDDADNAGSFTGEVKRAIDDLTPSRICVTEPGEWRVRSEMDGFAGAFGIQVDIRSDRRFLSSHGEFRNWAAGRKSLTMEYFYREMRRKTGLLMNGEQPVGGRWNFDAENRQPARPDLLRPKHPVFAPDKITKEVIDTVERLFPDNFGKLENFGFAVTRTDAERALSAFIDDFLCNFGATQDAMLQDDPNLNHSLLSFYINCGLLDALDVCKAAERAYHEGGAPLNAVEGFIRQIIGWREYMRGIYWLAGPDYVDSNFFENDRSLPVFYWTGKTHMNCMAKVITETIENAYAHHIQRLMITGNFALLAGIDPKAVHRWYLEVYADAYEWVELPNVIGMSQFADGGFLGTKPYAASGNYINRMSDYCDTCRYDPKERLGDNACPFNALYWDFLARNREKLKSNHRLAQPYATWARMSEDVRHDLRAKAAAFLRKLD

Compound: Cc1cc2nc3c(=O)[nH]c(=O)nc-3n(C[C@H](O)[C@H](O)[C@H](O)COP(=O)(O)OP(=O)(O)OC[C@H]3O[C@@H](n4cnc5c(N)ncnc54)[C@H](O)[C@@H]3O)c2cc1C [FAD]
- UV-vis absorption and blue-light photoreduction of co-purified cofactor (PhrA): a nearly stoichiometric ratio of both cofactors to the PhrA apoprotein was determined
- UV-vis absorption and blue-light photoreduction of co-purified cofactor (PhrB): the FAD cofactor in PhrB is photoreduced to the fully reduced FAD state
